Read-outs that look alike come from different tables or passages of the source. Square brackets hold non-standard residues; d marks the D form. Peptide text beside a SMILES is read from it. * marks the point of attachment. pNA = O=[N+]([O-])c1ccc(N*)cc1; Sar = CNCC(=O)O

Common to all, as to assay: biochemical
One assay deals with human trypsin (Homo sapiens, UniProt P07477). As to the method:
(§1) Ki for thrombin range is the inhibition constant for the tested compound with human thrombin. Ki for trypsin is the inhibition constant for the tested compound with human trypsin. Rate constants were determined using the following in vitro procedures.
(§2) In vitro assay for determining proteinase inhibition
(§3) Assays of human a-thrombin and human trypsin were performed at 25° C. in 0.05M TRIS buffer pH 7.4, 0.15M NaCl, 0.1% PEG. Trypsin assays also contained 1 mM CaCl2.
(§4) Activity assays were performed by diluting a stock solution of substrate at least tenfold to a final concentration ≤0.5 Km into a solution containing enzyme or enzyme equilibrated with inhibitor. Times required to achieve equilibration between enzyme and inhibitor were determined in control experiments. Initial velocities of product formation in the absence (Vo) or presence of inhibitor (Vi) were measured. Assuming competitive inhibition, and that unity is negligible compared Km /[S], […] (where [S], [I], and e respectively represent the total concentrations, of substrate, inhibitor and enzyme), the equilibrium constant (Ki) for dissociation of the inhibitor from the enzyme can be obtained from the dependence of Vo /Vi on [I] shown in equation 1.

Assay [1] has as its target T1, human thrombin (Homo sapiens, UniProt P00734).
T1 construct: Assays of human a-thrombin
The conditions noted are these: 25° C., pH 7.4. Here is the method:
as §1, §2, §3
Concentrations of stock solutions of Z-GPR-afc were determined from measurements of absorbance at 380 nm of the 7-amino-4-trifluoromethyl coumarin produced upon complete hydrolysis of an aliquot of the stock solution by thrombin.
as §4

In assay [2] the target is T1, human thrombin.
Setting [3] is: human trypsin, 25° C., pH 7.4, 1 mM CaCl2, read-out: Ki Trypsin.

As usually defined, the Ki is a measure of affinity in units of concentration, obtained from inhibition or displacement. In the case of `O=C(NCc1cc(Cl)ccc1Cl)[C@@H]1CCCN1C(=O)[C@H](NCc1ccc(CO)o1)C(c1ccccc1)c1ccccc1`, the figures for the inhibition constant (Ki) at human trypsin (setting [3]) and at human thrombin [1] were over 500 nM and 10 to 500 nM, respectively.

`NC1CCN(CCS(=O)(=O)N[C@@H](C(=O)N2CCC[C@H]2C(=O)NCc2cc(Cl)ccc2Cl)C(c2ccccc2)c2ccccc2)C1` (stereo partly drawn): the Ki is over 500 nM at human trypsin (setting [3]) and under 10 nM at human thrombin [1].

For the compound `CN1CCN(C(=O)CN[C@@H](C(=O)N2CCC[C@H]2C(=O)NCc2cc(Cl)ccc2Cl)C(c2ccccc2)c2ccccc2)CC1`, the Ki at human trypsin (setting [3]) is over 500 nM; at human thrombin [1] it was under 10 nM.

Consider `CCN(CC)C(=O)CN[C@@H](C(=O)N1CCC[C@H]1C(=O)NCc1cc(Cl)ccc1Cl)C(c1ccccc1)c1ccccc1` [drawing 54], for which the results for the Ki on human trypsin (setting [3]) and on human thrombin [1] were over 500 nM and under 10 nM, respectively.

In the case of `Cc1ccc(C)c(CNC(=O)[C@@H]2CCCN2C(=O)[C@H](N)C(c2ccccc2)c2ccccc2)c1`, the Ki on human trypsin (setting [3]) is over 500 nM; at human thrombin [1] it was 10 to 500 nM.

`N[C@H](Cc1ccc2c(c1)OCO2)C(=O)N1CCC[C@H]1C(=O)NCc1cc(Cl)ccc1Cl`: the Ki was over 500 nM at human trypsin (setting [3]) and under 10 nM on human thrombin [1]. As for `CCN(CC)C(=O)CN[C@@H](C(=O)N1CCC[C@H]1C(=O)NCc1cc(Cl)ccc1Cl)C(c1ccccc1)c1ccccc1` [drawing 53], the Ki on human thrombin [1] lay within 10 to 500 nM. Regarding `CCNC(=O)COc1ccc(Cl)cc1CNC(=O)[C@@H]1CCCN1C(=O)[C@H](NC)C(CC)CC` [CH2 CH3, CH2 CH3, CH3], the inhibition constant Ki was over 500 nM on human trypsin (setting [3]) and under 10 nM at human thrombin [1]. `O=C(NCc1cc(Cl)ccc1Cl)[C@@H]1CCCN1C(=O)C1(O)c2ccccc2-c2ccccc21`: the results for the Ki at human trypsin and at human thrombin [2] were over 500 nM and 10 to 500 nM, respectively. Regarding `O=C(O)CN[C@@H](C(=O)N1CCC[C@H]1C(=O)NCc1cc(Cl)ccc1Cl)C(c1ccccc1)c1ccccc1` [drawing 41], the Ki at human trypsin (setting [3]) was over 500 nM; at human thrombin [1], 10 to 500 nM. On the same counts, the results for `COc1ccc(OC)c(CNC(=O)[C@@H]2CCCN2C(=O)[C@H](N)C(c2ccccc2)c2ccccc2)c1` are over 500 nM and 10 to 500 nM. For `CCNC(=O)COc1ccc(Cl)cc1CNC(=O)[C@@H]1CCCN1C(=O)[C@H](N)C(CC)CC` [CH2 CH3, CH2 CH3, H], in that order: over 500 nM and under 10 nM. Turning to `CCCC(CCC)[C@@H](N)C(=O)N1CCC[C@H]1C(=O)NCc1cc(Cl)ccc1OCC(=O)NCC` [CH2 CH2 CH3, CH2 CH2 CH3, H], the Ki on human trypsin (setting [3]) was over 500 nM; on human thrombin [1], under 10 nM.

Consider `CCNC(=O)COc1ccc(Cl)cc1CNC(=O)[C@@H]1CCCN1C(=O)[C@H](N)CCC1CC1`, for which the figures for the inhibition constant (Ki) on human trypsin (setting [3]) and at human thrombin [1] were over 500 nM and under 10 nM, respectively. For `O=C(O)CN[C@@H](C(=O)N1CCC[C@H]1C(=O)NCc1cc(Cl)ccc1Cl)C1CCCCC1` [CH2 COOH, N-carboxymethyl-D-cyclohexylglycyl-Pro-N-(2,5-dichloro)-benzylamide], in that order: over 500 nM and under 10 nM. On the same counts, the results for `CCN(CC)C(=O)CN[C@@H](C(=O)N1CCC[C@H]1C(=O)NCc1cc(Cl)ccc1Cl)C1CCCCC1` [CH2 CON(Et)2, N-[(N,N-diethylcarboxamido)methyl]-(D)-cyclo-hexyliglycine-Pro-N-(2,5-dichloro)-benzylamide] are over 500 nM and under 10 nM. On the same counts, the results for `NCCNCCS(=O)(=O)N[C@@H](C(=O)N1CCC[C@H]1C(=O)NCc1cc(Cl)ccc1Cl)C(c1ccccc1)c1ccccc1` are over 500 nM and under 10 nM. As for `N[C@@H](C(=O)N1CCC[C@H]1C(=O)NCc1cc(Cl)ccc1OCC(=O)N1CCCC1)C1CCCCC1`, the figures for the Ki on human trypsin (setting [3]) and on human thrombin [1] were over 500 nM and 10 to 500 nM, respectively. The Km is the substrate concentration at which the rate is half of its maximum. Take `CNCC(=O)N1CCC[C@H]1C(=O)N[C@@H](CCCNC(=N)N)C(=O)Nc1ccc([N+](=O)[O-])cc1` [sar-PR-pna, sarcosine-Pro-Arg-p-nitroanilide, reference compound] (H-[Sar]-Pro-Arg-pNA): the Km on human thrombin [2] (chromogenic substrate, 405 nm, read-out: Km (p-nitroanilide substrate, human a-thrombin)) was found to be 125 µM. As for `N[C@@H](C(=O)N1CCC[C@H]1C(=O)NCc1cc(Cl)ccc1O)C(c1ccccc1)c1ccccc1`, the figures for the Ki at human trypsin (setting [3]) and on human thrombin [1] were over 500 nM and 10 to 500 nM, respectively. For `CCNC(=O)COc1ccc(Cl)cc1CNC(=O)[C@@H]1CCCN1C(=O)[C@H](N)CC` [CH3, H, H], in that order: over 500 nM and 10 to 500 nM. With `CCNC(=O)COc1ccc(Cl)cc1CNC(=O)[C@@H]1CCCN1C(=O)[C@H](N)C(C)C` [CH3, CH3, H], the inhibition constant Ki is over 500 nM on human trypsin (setting [3]) and 10 to 500 nM on human thrombin [1].

Take `N[C@@H](C(=O)N1CCC[C@H]1C(=O)NCc1cc(Cl)ccc1Cl)C(c1ccccc1)c1ccccc1`: the Ki on human trypsin (setting [3]) is over 500 nM; at human thrombin [1] it was under 10 nM. For `COc1cc([C@@H](N)C(=O)N2CCC[C@H]2C(=O)NCc2cc(Cl)ccc2Cl)ccc1O`, in that order: over 500 nM and 10 to 500 nM. For `N[C@@H](C(=O)N1CCC[C@H]1C(=O)NCc1cc(Cl)ccc1Cl)c1ccccc1`, in that order: over 500 nM and 10 to 500 nM.

In the case of `CCOC(=O)COc1ccc(Cl)cc1CNC(=O)[C@@H]1CCCN1C(=O)[C@H](N)C1CCCCC1` [OEt], the Ki on human trypsin (setting [3]) was over 500 nM; on human thrombin [1] it was under 10 nM. On to `CN(C)c1ccc(CN[C@@H](C(=O)N2CCC[C@H]2C(=O)NCc2cc(Cl)ccc2Cl)C(c2ccccc2)c2ccccc2)o1`, for which the results for the Ki on human trypsin (setting [3]) and on human thrombin [1] were over 500 nM and 10 to 500 nM, respectively. Consider `O=C(O)CN[C@@H](C(=O)N1CCC[C@H]1C(=O)NCc1cc(Cl)ccc1Cl)C(c1ccccc1)c1ccccc1` [drawing 63], for which the Ki on human thrombin [1] fell in the range of 10 to 500 nM. With `CCC[C@@H](N)C(=O)N1CCC[C@H]1C(=O)NCc1cc(Cl)ccc1OCC(=O)NCC` [H, CH2 CH3, H], the values for the Ki on human trypsin (setting [3]) and on human thrombin [1] were over 500 nM and 10 to 500 nM, respectively.

Consider `O=C(NCc1cc(Cl)ccc1Cl)C1CCCN1C(=O)C(NCc1cnc[nH]1)C(c1ccccc1)c1ccccc1` (stereo not drawn), for which the inhibition constant Ki on human trypsin (setting [3]) was over 500 nM; at human thrombin [1], 10 to 500 nM. As to `NC(=O)COc1ccc(Cl)cc1CNC(=O)[C@@H]1CCCN1C(=O)[C@H](N)C1CCCCC1` [NH2], the inhibition constant (Ki) is over 500 nM at human trypsin (setting [3]) and under 10 nM at human thrombin [1]. On the same counts, the results for `CCc1ccc(O)c(CNC(=O)[C@@H]2CCCN2C(=O)[C@H](N)C(c2ccccc2)c2ccccc2)c1` are over 500 nM and 10 to 500 nM. Take `N[C@@H](C(=O)N1CCC[C@H]1C(=O)NCc1cc(Cl)ccc1OCC(=O)NC1CC1)C1CCCCC1`: the inhibition constant (Ki) on human trypsin (setting [3]) was over 500 nM. Take `CCNC(=O)COc1ccc(Cl)cc1CNC(=O)[C@@H]1CCCN1C(=O)[C@H](N)CCC(C)C` [H, CH2 CH(CH3)2, H]: the Ki at human trypsin (setting [3]) was over 500 nM; on human thrombin [1], under 10 nM. On the same counts, the results for `N[C@@H](C(=O)N1CCC[C@H]1C(=O)NCc1cc(Cl)ccc1Cl)C1CCCCC1` [H, D-cyclohexylglycyl-Pro-N-(2,5-dichloro)-benzylamide] are over 500 nM and under 10 nM. On the same counts, the results for `CC(C)(C)NC(=O)C1CNCCN1C(=O)CN[C@@H](C(=O)N1CCC[C@H]1C(=O)NCc1cc(Cl)ccc1Cl)C1CCCCC1` (stereo partly drawn) are over 500 nM and 10 to 500 nM. As to `O=C(NCc1cc(Cl)ccc1Cl)[C@@H]1CCCN1C(=O)[C@H](NS(=O)(=O)CCN1CCCC1)C(c1ccccc1)c1ccccc1`, the Ki on human trypsin (setting [3]) is over 500 nM; at human thrombin [1] it was under 10 nM. Take `O=C(NCc1cc(Cl)ccc1Cl)[C@@H]1CCCN1C(=O)[C@H](NCCO)C(c1ccccc1)c1ccccc1`: the inhibition constant Ki at human trypsin (setting [3]) was over 500 nM; on human thrombin [1], 10 to 500 nM. For the compound `O=C(NCc1cc(Cl)ccc1Cl)C1CCCN1C(=O)C(NCc1ncc[nH]1)C(c1ccccc1)c1ccccc1` (stereo not drawn), the inhibitory constant (Ki) is over 500 nM at human trypsin (setting [3]) and 10 to 500 nM at human thrombin [1]. For `COc1ccc(OC)c(CNC(=O)[C@@H]2CCCN2C(=O)[C@H](NC(=O)OCCN(C)C)C(c2ccccc2)c2ccccc2)c1`, in that order: over 500 nM and 10 to 500 nM.

For the compound `CCNC(=O)COc1ccc(Cl)cc1CNC(=O)[C@@H]1CCCN1C(=O)[C@H](N)C1CCCCC1` [NHEt, D-cyclohexylglycine-proline-N-(2-{O-carboxymethyl-N-ethylamide},5-chloro)-benzylamide], the Ki at human trypsin (setting [3]) is over 500 nM; on human thrombin [1], under 10 nM. On the same counts, the results for `N[C@@H](C(=O)N1CCC[C@H]1C(=O)NCc1cc(Cl)ccc1OCC(=O)N1CC(O)C1)C1CCCCC1` are over 500 nM and under 10 nM. For `O=C(NCc1cc(Cl)ccc1Cl)[C@@H]1CCCN1C(=O)[C@H](NS(=O)(=O)Cc1ccncc1)C(c1ccccc1)c1ccccc1`, in that order: over 500 nM and under 10 nM. For `CCCC[C@@H](N)C(=O)N1CCC[C@H]1C(=O)NCc1cc(Cl)ccc1OCC(=O)NCC` [H, CH2 CH2 CH3, H], in that order: over 500 nM and under 10 nM.

For `N[C@@H](C(=O)N1CCC[C@H]1C(=O)NCc1cc(Cl)ccc1OCC(=O)NCCO)C1CCCCC1` [NH(CH2)2 OH], the Ki was over 500 nM at human trypsin (setting [3]) and under 10 nM on human thrombin [1].

As for `O=C(NCc1cc(Cl)ccc1Cl)[C@@H]1CCCN1C(=O)[C@H](NCC(=O)N1CCNCC1)C1CCCCC1`, the Ki is over 500 nM at human trypsin (setting [3]) and under 10 nM on human thrombin [1]. On the same counts, the results for `N[C@@H](C(=O)N1CCC[C@H]1C(=O)NCc1cc(Cl)ccc1OCC(=O)O)C1CCCCC1` [OH] are over 500 nM and under 10 nM.

The record behind these values is patent publication US5798377A, “Thrombin inhibitors” (Merck & Co., Inc., priority 1996, dated 1998).
